Target: MT1-MMP (Homo sapiens, UniProt P50281)
Assay: FRET triple-helical peptide
Type: biochemical

**Q.** Which IC50 does the source give for `CNC(=O)[C@@H](NC(=O)[C@H](CC(C)C)[C@H](O)C(=O)NO)C(C)(C)C` [marimastat] here?
**A.** The IC50 was 19 ± 3 nM.
